This note sets out measurements from patent US10683292B2, “Purine and 3-deazapurine analogues as choline kinase inhibitors” (NERVIANO MEDICAL SCIENCES S.R.L., priority 2016, dated 2020).

In one test the target is T1, Δ49N-hChoKα (Homo sapiens, UniProt P35790).
T1 construct: cDNA fragment 362-1534, corresponding to aminoacids 50-457; GST (N, cleaved yes); Prescission Protease recognition site (N, cleaved yes); made in house; host or cells: Escherichia coli BL21pLysS (DE3)
The test can be described thus: Biochemical kinase inhibition assay (Kinase-Glo Luminescent Kinase Assay) on Δ49N-hChoKα. As to conditions: ATP 5 μM, choline 5 μM, 60 minutes at rt; read-out: IC50 ChoKα. Background: In Kinase-Glo more light means more ATP remaining.

In a further test the target is T2, hChoKβ FL (Homo sapiens, UniProt Q9Y259).
T2 construct: hChoKβ full length (FL), corresponding to aminoacids 2-395; GST (N, cleaved yes); Prescission Protease recognition site (N, cleaved yes); made in house; host or cells: Escherichia coli BL21pLysS (DE3)
T2 sequence (Q9Y259 2-395): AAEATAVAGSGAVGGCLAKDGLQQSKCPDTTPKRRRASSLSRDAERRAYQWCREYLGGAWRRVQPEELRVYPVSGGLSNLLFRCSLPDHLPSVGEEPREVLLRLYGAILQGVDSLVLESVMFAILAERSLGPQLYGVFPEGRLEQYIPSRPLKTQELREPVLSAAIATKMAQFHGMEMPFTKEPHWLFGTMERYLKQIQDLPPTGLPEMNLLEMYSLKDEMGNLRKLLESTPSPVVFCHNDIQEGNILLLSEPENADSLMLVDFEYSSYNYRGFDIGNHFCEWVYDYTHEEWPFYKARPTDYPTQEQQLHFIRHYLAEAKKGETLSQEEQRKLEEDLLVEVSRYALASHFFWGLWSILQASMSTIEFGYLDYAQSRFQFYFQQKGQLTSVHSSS
Description: Biochemical kinase inhibition assay (Kinase-Glo Luminescent Kinase Assay) on hChoKβ FL. As to conditions: ATP 5 μM, choline 20 μM, 60 minutes at rt; read-out: IC50 ChoKβ.

T1 sequence (P35790 50-457, stated change not applied): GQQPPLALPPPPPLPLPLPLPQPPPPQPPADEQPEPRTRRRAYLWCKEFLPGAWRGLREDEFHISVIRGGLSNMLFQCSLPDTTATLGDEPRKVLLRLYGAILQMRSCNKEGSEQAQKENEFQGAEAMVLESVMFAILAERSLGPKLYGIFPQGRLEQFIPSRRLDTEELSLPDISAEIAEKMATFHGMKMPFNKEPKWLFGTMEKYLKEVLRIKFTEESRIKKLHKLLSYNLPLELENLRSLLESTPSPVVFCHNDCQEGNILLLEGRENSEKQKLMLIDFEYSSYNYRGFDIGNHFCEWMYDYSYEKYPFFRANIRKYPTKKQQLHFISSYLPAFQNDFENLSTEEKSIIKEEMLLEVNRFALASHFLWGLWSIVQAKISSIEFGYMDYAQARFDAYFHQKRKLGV
Description for Δ49N-hChoKα: The biochemical activity of compounds against Δ49N-ChoKα and ChoKβ FL were determined using the Kinase-Glo™ Luminescent Kinase Assay (Promega cat. V6711).
Compounds were 3-fold serially diluted from 10 to 0.0005 μM, then incubated for 60 minutes at rt in the presence of ATP 5 μM, choline (5 μM for ChoKα and 20 μM for ChoKβ) and enzyme in a final volume of 19 μL of kinase buffer (50 mM Hepes pH 7.5, 10 mM MgCl2, 1 mM DTT, 3 μM Na3VO4 and 0.2 mg/mL BSA). The final concentration of DMSO was 1%.
At the end of the incubation, an amount of 19 μL of KinaseGlo Reagent was added to each well to stop the reaction and after 30 minutes the luminescence signal was measured using ViewLux reader (Perkin Elmer).
The data per each molecule are analyzed by an internally customized version of the SW package “Assay Explorer” which provides sigmoidal fittings of the ten-dilution curves for IC50 determination using a 4 parameter logistic equation: y=bottom+(top−bottom)/(1+10^((log IC50−x)*slope)) where x is the logarithm of the inhibitor concentration, y is the response; y starts at bottom and goes to top with a sigmoid shape.

The term IC50 denotes the concentration that gives 50% inhibition. For `COc1cccc(NC(=O)[C@H]2CC[C@@H](n3cnc4c(N)nc(C#CCO)nc43)CC2)c1` [cpd 60, cis-4-[6-amino-2-(3-hydroxyprop-1-yn-1-yl)-9H-purin-9-yl]-N-(3-methoxyphenyl)cyclohexanecarboxamide], the IC50 at Δ49N-hChoKα was 854 nM; at hChoKβ FL, more than 10000 nM.

In the case of `Nc1nc(Cl)nc2c1ncn2[C@H]1CC[C@@H](C(=O)Nc2nnc(C(F)(F)F)s2)CC1` [cpd 64, cis-4-(6-amino-2-chloro-9H-purin-9-yl)-N-[5-(trifluoromethyl)-1,3,4-thiadiazol-2-yl]cyclohexanecarboxamide], the IC50 on Δ49N-hChoKα is 196 nM; on hChoKβ FL it was more than 10000 nM.

For the molecule `Cc1csc(NC(=O)[C@H]2CC[C@@H](n3cnc4c(N)nc(I)nc43)CC2)n1` [cpd 70, cis-4-(6-amino-2-iodo-9H-purin-9-yl)-N-(4-methyl-1,3-thiazol-2-yl)cyclohexanecarboxamide], the IC50 at Δ49N-hChoKα is 34 nM; at hChoKβ FL, more than 10000 nM.

For the molecule `Nc1nc(Cl)nc2c1ncn2[C@H]1CC[C@@H](C(=O)Nc2ccc(C(=O)NC3CCCCC3)cc2)CC1` [cpd 71, 4-({[cis-4-(6-amino-2-chloro-9H-purin-9-yl)cyclohexyl]carbonyl}amino)-N-cyclohexylbenzamide], the concentration for half-maximal inhibition (IC50) on Δ49N-hChoKα turned out to be 375 nM; on hChoKβ FL it was 2840 nM.

Take `Nc1nc(Cl)nc2c1ncn2[C@H]1CC[C@@H](C(=O)Nc2nccs2)CC1` [cpd 72, cis-4-(6-amino-2-chloro-9H-purin-9-yl)-N-(1,3-thiazol-2-yl)cyclohexanecarboxamide]: the values for the 50% inhibitory concentration (IC50) at Δ49N-hChoKα and at hChoKβ FL were 61 nM and more than 10000 nM, respectively.

With `C#Cc1nc(N)c2ncn([C@H]3CC[C@@H](C(=O)Nc4nc(C)cs4)CC3)c2n1` [cpd 77, cis-4-(6-amino-2-ethynyl-9H-purin-9-yl)-N-(4-methyl-1,3-thiazol-2-yl)cyclohexanecarboxamide], the IC50 at Δ49N-hChoKα was determined as 18 nM; on hChoKβ FL it was 5970 nM.

With `Cc1csc(NC(=O)[C@H]2CC[C@@H](n3cnc4c(N)nc(-c5ccncc5)nc43)CC2)n1` [cpd 81, cis-4-[6-amino-2-(pyridin-4-yl)-9H-purin-9-yl]-N-(4-methyl-1,3-thiazol-2-yl)cyclohexanecarboxamide], the IC50 on Δ49N-hChoKα is 125 nM; at hChoKβ FL, more than 10000 nM.

On to `COc1cccc(NC(=O)[C@H]2CC[C@@H](n3cnc4c(N)nc(OC)nc43)CC2)c1` [cpd 83, cis-4-(6-amino-2-methoxy-9H-purin-9-yl)-N-(3-methoxyphenyl)cyclohexanecarboxamide], for which the IC50 at Δ49N-hChoKα was 425 nM; on hChoKβ FL, more than 10000 nM.

Consider `COc1nc(N)c2ncn([C@H]3CC[C@@H](C(=O)Nc4nc(C)cs4)CC3)c2n1` [cpd 84, cis-4-(6-amino-2-methoxy-9H-purin-9-yl)-N-(4-methyl-1,3-thiazol-2-yl)cyclohexanecarboxamide], for which the 50% inhibitory concentration (IC50) on Δ49N-hChoKα is 86 nM; at hChoKβ FL, more than 10000 nM.

On to `Cc1csc(NC(=O)[C@H]2CC[C@@H](n3cnc4c(N)nc(-c5cccc(C(=O)Nc6ccc(CN7CCC(N(C)C)CC7)cc6)c5)nc43)CC2)n1` [cpd 85, 3-(6-amino-9-{cis-4-[(4-methyl-1,3-thiazol-2-yl)carbamoyl]cyclohexyl}-9H-purin-2-yl)-N-(4-{[4-(dimethylamino)piperidin-1-yl]methyl}phenyl)benzamide bis-trifluoroacetate], for which the IC50 on Δ49N-hChoKα was 11 nM; on hChoKβ FL, more than 10000 nM.

On to `Nc1nc(Cl)nc2c1ncn2[C@H]1CC[C@@H](C(=O)Nc2nc(CC(=O)N3CCC(N4CCCCC4)CC3)cs2)CC1` [cpd 86, cis-4-(6-amino-2-chloro-9H-purin-9-yl)-N-{4-[2-(1,4′-bipiperidin-1′-yl)-2-oxoethyl]-1,3-thiazol-2-yl}cyclohexanecarboxamide], for which the IC50 at Δ49N-hChoKα is 52 nM; on hChoKβ FL, more than 10000 nM.

For `COc1cccc(NC(=O)[C@H]2CC[C@@H](n3cnc4c(N)nc(C5CC5)nc43)CC2)c1` [cpd 87, cis-4-(6-amino-2-cyclopropyl-9H-purin-9-yl)-N-(3-methoxyphenyl)cyclohexanecarboxamide], the IC50 is 974 nM at Δ49N-hChoKα and more than 10000 nM at hChoKβ FL.

Turning to `COC(=O)[C@H]1CC[C@@H](n2cnc3c(N)nc(Cl)nc32)CC1` [cpd 88, methyl cis-4-(6-amino-2-chloro-9H-purin-9-yl)cyclohexanecarboxylate], the IC50 at Δ49N-hChoKα was 524 nM; at hChoKβ FL, more than 10000 nM.

On to `CS(=O)(=O)c1ccc2nc(NC(=O)[C@H]3CC[C@@H](n4cnc5c(N)nc(Cl)nc54)CC3)sc2c1` [cpd 89, cis-4-(6-amino-2-chloro-9H-purin-9-yl)-N-[6-(methylsulfonyl)-1,3-benzothiazol-2-yl]cyclohexanecarboxamide], for which the 50% inhibitory concentration (IC50) at Δ49N-hChoKα was 64 nM; at hChoKβ FL, 4160 nM.

For the molecule `Nc1nc(Cl)nc2c1ncn2[C@H]1CC[C@@H](C(=O)Nc2nc3ccc(Cl)cc3s2)CC1` [cpd 90, cis-4-(6-amino-2-chloro-9H-purin-9-yl)-N-(6-chloro-1,3-benzothiazol-2-yl)cyclohexanecarboxamide], the IC50 was 28 nM on Δ49N-hChoKα and more than 10000 nM at hChoKβ FL.

For `Cc1cc2nc(NC(=O)[C@H]3CC[C@@H](n4cnc5c(N)nc(Cl)nc54)CC3)sc2cc1C` [cpd 93, cis-4-(6-amino-2-chloro-9H-purin-9-yl)-N-(5,6-dimethyl-1,3-benzothiazol-2-yl)cyclohexanecarboxamide], the values for the concentration for half-maximal inhibition (IC50) at Δ49N-hChoKα and at hChoKβ FL were 48 nM and 6080 nM, respectively.

Consider `Nc1nc(Cl)nc2c1ncn2[C@H]1CC[C@@H](C(=O)Nc2nc3cc(Cl)ccc3o2)CC1` [cpd 94, cis-4-(6-amino-2-chloro-9H-purin-9-yl)-N-(5-chloro-1,3-benzoxazol-2-yl)cyclohexanecarboxamide], for which the results for the IC50 on Δ49N-hChoKα and at hChoKβ FL were 178 nM and 5620 nM, respectively.

In the case of `Cn1c(NC(=O)[C@H]2CC[C@@H](n3cnc4c(N)nc(Cl)nc43)CC2)nc2ccccc21` [cpd 95, cis-4-(6-amino-2-chloro-9H-purin-9-yl)-N-(1-methyl-1H-benzimidazol-2-yl)cyclohexanecarboxamide], the IC50 on Δ49N-hChoKα stood at 268 nM; at hChoKβ FL, 7120 nM.

Take `Cc1csc(NC(=O)[C@H]2CC[C@@H](n3cnc4c(N)nc(-c5cccc(C(N)=O)c5)nc43)CC2)n1` [cpd 96, 3-(6-amino-9-{cis-4-[(4-methyl-1,3-thiazol-2-yl)carbamoyl]cyclohexyl}-9H-purin-2-yl)benzamide]: the results for the half-maximal inhibitory concentration (IC50) at Δ49N-hChoKα and at hChoKβ FL were 274 nM and more than 10000 nM, respectively.

Turning to `Cc1csc(NC(=O)[C@H]2CC[C@H](n3cnc4c(N)nc(-c5cccc(C(N)=O)c5)nc43)CC2)n1` [cpd 97, 3-(6-amino-9-{trans-4-[(4-methyl-1,3-thiazol-2-yl)carbamoyl]cyclohexyl}-9H-purin-2-yl)benzamide], the figures for the IC50 at Δ49N-hChoKα and on hChoKβ FL were 478 nM and more than 10000 nM, respectively.

On to `Cc1csc(NC(=O)[C@H]2CC[C@@H](n3cnc4c(N)nc(C#C[Si](C)(C)C)nc43)CC2)n1` [cpd 98, cis-4-{6-amino-2-[(trimethylsilyl)ethynyl]-9H-purin-9-yl}-N-(4-methyl-1,3-thiazol-2-yl)cyclohexanecarboxamide], for which the values for the IC50 on Δ49N-hChoKα and on hChoKβ FL were 120 nM and more than 10000 nM, respectively.

As for `Cc1csc(NC(=O)[C@H]2CC[C@@H](n3cnc4c(N)nc(-c5cccc(OCc6ccccc6)c5)nc43)CC2)n1` [cpd 100, cis-4-{6-amino-2-[3-(benzyloxy)phenyl]-9H-purin-9-yl}-N-(4-methyl-1,3-thiazol-2-yl)cyclohexanecarboxamide], the values for the IC50 on Δ49N-hChoKα and at hChoKβ FL were 248 nM and more than 10000 nM, respectively.
